Source: patent US20230382925A1, “MODULATORS OF CYSTIC FIBROSIS TRANSMEMBRANE CONDUCTANCE REGULATOR” (VERTEX PHARMACEUTICALS INCORPORATED, priority 2020, published 2023)
Read-outs that look alike come from different tables or passages of the source.

Target: CFTR (Homo sapiens, UniProt P13569)
Test: Membrane Potential Dye, Enteroid Assay B
Type: cell-based
How it was run: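 Human intestinal enteroid cells exposed to compound 18-24 h at 37 °C, then loaded with methyl oxonol membrane-potential dye plus CaCC blockers. Chloride transport triggered in chloride-free buffer with 10 μM forskolin, 100 μM IBMX, 300 nM Compound III; fluorescence read 15 min, expressed as % of triple-corrector/potentiator combination control.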

[1] = Table 10, read-out: Ent. B EC50

Sequence of CFTR (P13569 with tags, fused parts or gaps DEL508-508): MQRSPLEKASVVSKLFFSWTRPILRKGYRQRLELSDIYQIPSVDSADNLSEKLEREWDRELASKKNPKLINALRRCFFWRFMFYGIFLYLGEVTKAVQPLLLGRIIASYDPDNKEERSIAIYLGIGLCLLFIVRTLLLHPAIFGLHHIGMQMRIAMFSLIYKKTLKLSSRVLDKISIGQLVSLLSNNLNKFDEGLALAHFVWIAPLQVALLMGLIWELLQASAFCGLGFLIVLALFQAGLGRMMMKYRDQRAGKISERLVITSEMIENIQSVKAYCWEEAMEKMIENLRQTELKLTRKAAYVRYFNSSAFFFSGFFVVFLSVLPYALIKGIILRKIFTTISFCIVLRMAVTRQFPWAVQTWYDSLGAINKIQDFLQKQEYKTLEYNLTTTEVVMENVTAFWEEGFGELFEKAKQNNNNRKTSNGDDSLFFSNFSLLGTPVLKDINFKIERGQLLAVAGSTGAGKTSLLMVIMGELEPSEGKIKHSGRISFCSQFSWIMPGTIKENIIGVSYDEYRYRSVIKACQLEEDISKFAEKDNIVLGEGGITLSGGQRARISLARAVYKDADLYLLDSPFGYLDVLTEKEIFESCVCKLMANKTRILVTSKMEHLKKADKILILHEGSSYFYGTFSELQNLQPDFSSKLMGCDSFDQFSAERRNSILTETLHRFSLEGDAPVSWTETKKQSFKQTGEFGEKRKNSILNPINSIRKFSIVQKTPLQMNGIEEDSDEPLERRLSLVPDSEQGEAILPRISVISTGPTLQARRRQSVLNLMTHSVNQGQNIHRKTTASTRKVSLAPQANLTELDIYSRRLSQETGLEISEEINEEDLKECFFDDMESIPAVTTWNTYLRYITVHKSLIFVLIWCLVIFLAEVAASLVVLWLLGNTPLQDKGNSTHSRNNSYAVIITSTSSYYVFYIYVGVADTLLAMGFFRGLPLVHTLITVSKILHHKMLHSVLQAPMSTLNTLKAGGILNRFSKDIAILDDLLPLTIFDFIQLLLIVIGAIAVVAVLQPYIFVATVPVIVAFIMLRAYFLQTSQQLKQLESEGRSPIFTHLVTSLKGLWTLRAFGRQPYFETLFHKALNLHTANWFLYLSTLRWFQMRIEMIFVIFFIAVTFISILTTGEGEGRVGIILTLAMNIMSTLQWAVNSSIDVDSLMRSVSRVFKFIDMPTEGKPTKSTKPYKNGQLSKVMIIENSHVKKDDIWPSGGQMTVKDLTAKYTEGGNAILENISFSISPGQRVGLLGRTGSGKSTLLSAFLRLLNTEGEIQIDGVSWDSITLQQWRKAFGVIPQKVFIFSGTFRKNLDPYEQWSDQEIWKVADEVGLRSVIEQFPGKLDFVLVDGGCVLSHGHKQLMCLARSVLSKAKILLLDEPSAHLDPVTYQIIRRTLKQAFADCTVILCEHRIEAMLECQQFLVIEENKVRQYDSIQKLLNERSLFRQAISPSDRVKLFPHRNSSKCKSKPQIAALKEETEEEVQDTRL

| Ent. B Max Activity (%) (Table 10) | EC50 [1] [nM] | Ent. B Max Activity (%) (Table 9) | EC50 (Table 9, read-out: Ent. B EC50) [nM] | Structure (SMILES) | further results |
| --- | --- | --- | --- | --- | --- |
| +++ (+++ is >60%) | < 1000 |  |  | Cc1cccc(C)c1-c1cc2nc(n1)NS(=O)(=O)c1cccc(c1)C(=O)N(C1CC3(C1)CC(C(C)(C)O)C3)[C@H](CC(C)(C)C)CO2 (single isomer, unassigned) [Compound 116] |  |
| ++ (++ is 30-60%) | < 1000 |  |  | Cc1cccc(C)c1-c1cc2nc(n1)NS(=O)(=O)c1cccc(c1)C(=O)N(C1CC(C)(OC(F)(F)F)C1)[C@H](CC(C)C)CO2 (stereo partly drawn) [Compound 49, (11R)-6-(2,6-dimethylphenyl)-11-isobutyl-12-[3-methyl-3-(trifluoromethoxy)cyclobutyl]-2,2-dioxo-9-oxa-2λ^6-thia-3,5,12,19-tetrazatricyclo[12.3.1.14,8]nonadeca-1(18),4(19),5,7,14,16-hexaen-13-one] |  |
|  |  |  |  | Cc1cccc(C)c1-c1cc2nc(n1)NS(=O)(=O)c1cccc(c1)C(=O)N([C@H]1CCN(C)C1)[C@H](CC(C)C)CO2 (stereo in doubt) [Compound 295] | Ent. B Max Activity (%): +++ (+++ is >60%); EC50 (read-out: Ent. B EC50): < 1000 nM |
| +++ (+++ is >60%) | < 1000 |  |  | [H][C@]1(N2C(=O)c3cccc(c3)S(=O)(=O)Nc3nc(cc(-c4c(C)cccc4C)n3)OC[C@H]2CC(C)(C)C)C[C@@]2(C[C@H](NC(=O)OC3CC3)C2)C1 (stereo in doubt) [Compound 356] |  |
|  |  |  |  | COC(=O)N[C@H]1CC2(C1)C[C@H](N1C(=O)c3cccc(c3)S(=O)(=O)Nc3nc(cc(-c4c(C)cccc4C)n3)OC[C@H]1CC(C)C)C2 (stereo partly drawn) [Compound 304] | Ent. B Max Activity (%): +++ (+++ is >60%); EC50 (read-out: Ent. B EC50): < 1000 nM |
| + (+ is <300%) | < 1000 |  |  | Cc1cccc(C)c1-c1cc2nc(n1)NS(=O)(=O)c1cccc(c1)C(=O)N(c1cnn(C3CCN(Cc4ccccc4)CC3)c1)[C@H](CC(C)(C)C)CO2 [Compound 226] |  |
| ++ (++ is 30-60%) | < 1000 |  |  | Cc1cccc(C)c1-c1cc2nc(n1)NS(=O)(=O)c1cccc(c1)C(=O)N(C1CC3(C1)CC(C)(O)C3)[C@H](CC(C)(C)C)CO2 (single isomer, unassigned) [Compound 120] |  |
| ++ (++ is 30-60%) | < 1000 |  |  | Cc1cccc(C)c1-c1cc2nc(n1)NS(=O)(=O)c1cccc(c1)C(=O)N(C1CC(N)C1)[C@H](CC(C)(C)C)CO2 (single isomer, unassigned) [Compound 166] |  |
|  |  | +++ (+++ is >60%) | < 1000 | [H][C@]1(N2C(=O)c3cccc(c3)S(=O)(=O)Nc3nc(cc(-c4c(C)cccc4C)n3)OC[C@H]2CC(C)C)C[C@@]2(C[C@H](N(C)CCOC)C2)C1 (stereo partly drawn) [Compound 286] |  |
| +++ (+++ is >60%) | < 1000 |  |  | Cc1cccc(C)c1-c1cc2nc(n1)NS(=O)(=O)c1cccc(c1)C(=O)N([C@H]1C[C@@H](CC(C)(C)O)C1)[C@H](CC(C)(C)C)CO2 (single isomer, unassigned) [Compound 152] |  |
| +++ (+++ is >60%) | < 1000 |  |  | Cc1cccc(C)c1-c1cc2nc(n1)NS(=O)(=O)c1cccc(c1)C(=O)N([C@H]1C[C@]3(C[C@H](NC(=O)C(C)C)C3)C1)[C@H](CC1(C(F)(F)F)CC1)CO2 (stereo partly drawn) [Compound 246] |  |
| +++ (+++ is >60%) | < 1000 |  |  | CC(=O)N1CCC12CC(N1C(=O)c3cccc(c3)S(=O)(=O)Nc3nc(cc(-c4c(C)cccc4C)n3)OC[C@H]1CC(C)(C)C)C2 (stereo partly drawn) [Compound 207] |  |
|  |  | +++ (+++ is >60%) | < 1000 | COCCNC1CC2(C1)CC(N1C(=O)c3cccc(c3)S(=O)(=O)Nc3nc(cc(-c4c(C)cccc4C)n3)OC[C@H]1CC(C)C)C2 (stereo in doubt) [Compound 288] |  |
|  |  | +++ (+++ is >60%) | < 1000 | Cc1cccc(C)c1-c1cc2nc(n1)NS(=O)(=O)c1cccc(c1)C(=O)N([C@H]1C[C@@]3(C[C@H](NC(C)C)C3)C1)[C@H](CC1(C(F)(F)F)CC1)CO2 (stereo partly drawn) [Compound 266] |  |
|  |  | +++ (+++ is >60%) | < 1000 | Cc1cccc(C)c1-c1cc2nc(n1)NS(=O)(=O)c1cccc(c1)C(=O)N([C@H]1C[C@]3(C[C@H](N(C)C(=O)OC(C)C)C3)C1)[C@H](CC1(C(F)(F)F)CC1)CO2 (stereo partly drawn) [Compound 271] |  |
| ++ (++ is 30-60%) | < 1000 |  |  | Cc1cccc(C)c1-c1cc2nc(n1)NS(=O)(=O)c1cccc(c1)C(=O)N([C@H]1C[C@@H](OC(F)(F)F)C1)[C@H](CC1(C(F)(F)F)CC1)CO2 (stereo in doubt) [Compound 212] |  |
| +++ (+++ is >60%) | < 1000 |  |  | Cc1cccc(C)c1-c1cc2nc(n1)NS(=O)(=O)c1cccc(c1)C(=O)N(c1cnn(C)c1)[C@H](CC(C)(C)C)CO2 [Compound 230] |  |
|  |  |  |  | Cc1cccc(C)c1-c1cc2nc(n1)NS(=O)(=O)c1cccc(c1)C(=O)N(C1CC3(CC3)C1)CC(C(C)C)O2 (stereo not drawn) [Compound 468] | Ent. B Max Activity (%): ++ (++ is 30-60%); EC50 (read-out: Ent. B EC50): < 1000 nM |

| Ent. B Max Activity (%) (Table 10) | EC50 [1] [nM] | Ent. B Max Activity (%) (Table 9) | EC50 (Table 9, read-out: Ent. B EC50) [nM] | Structure (SMILES) | further results |
| --- | --- | --- | --- | --- | --- |
| +++ (+++ is >60%) | < 1000 |  |  | Cc1cccc(C)c1-c1cc2nc(n1)NS(=O)(=O)c1cccc(c1)C(=O)N(C1CC3(C1)CC(CO)(CO)C3)[C@H](CC(C)(C)C)CO2 [Compound 354] |  |
|  |  | +++ (+++ is >60%) | < 1000 | COCCN1CCN([C@H]2C[C@@H](N3C(=O)c4cccc(c4)S(=O)(=O)Nc4nc(cc(-c5c(C)cccc5C)n4)OC[C@H]3CC(C)C)C2)CC1=O [Compound 385] |  |
|  |  | +++ (+++ is >60%) | < 1000 | Cc1cccc(C)c1-c1cc2nc(n1)NS(=O)(=O)c1cccc(c1)C(=O)N([C@H]1C[C@@H](OC(C)C)C1)[C@H](CC1(C(F)(F)F)CC1)CO2 (single isomer, unassigned) [Compound 131] |  |
|  |  | +++ (+++ is >60%) | < 1000 | Cc1cccc(C)c1-c1cc2nc(n1)NS(=O)(=O)c1cccc(c1)C(=O)N(C1CC3(CC(NC(=O)OC(C)C)C3)C1)[C@H](CC(C)(C)C)CO2 (stereo partly drawn) [Compound 92, Isopropyl ((2S,4s,6S)-6-((R)-1^6-(2,6-dimethylphenyl)-7-neopentyl-3,3-dioxido-5-oxo-9-oxa-3-thia-2,6-diaza-1(2,4)-pyrimidina-4(1,3)-benzenacyclononaphane-6-yl)spiro[3.3]heptan-2-yl)carbamate] |  |
|  |  |  |  | Cc1cccc(C)c1-c1cc2nc(n1)NS(=O)(=O)c1cccc(c1)C(=O)N([C@H]1C[C@@H](N(C)C)C1)[C@H](CC(C)C)CO2 [Compound 302] | Ent. B Max Activity (%): +++ (+++ is >60%); EC50 (read-out: Ent. B EC50): < 1000 nM |
|  |  |  |  | Cc1cccc(C)c1-c1cc2nc(n1)NS(=O)(=O)c1cccc(c1)C(=O)N(C1CC3(CCN(C(=O)OC(C)C)CC3)C1)[C@H](CC1(C(F)(F)F)CC1)CO2 [Compound 464] | Ent. B Max Activity (%): +++ (+++ is >60%); EC50 (read-out: Ent. B EC50): < 1000 nM |
| ++ (++ is 30-60%) | < 1000 |  |  | Cc1cccc(C)c1-c1cc2nc(n1)NS(=O)(=O)c1cccc(c1)C(=O)N([C@H]1C[C@H](OC(=O)NCc3ccccc3)C1)[C@H](CC(C)C)CO2 (stereo in doubt) [Compound 362] |  |
|  |  |  |  | [H][C@]1(N2C(=O)c3cccc(c3)S(=O)(=O)Nc3nc(cc(-c4c(C)cccc4C)n3)OC[C@H]2CC2(C(F)(F)F)CC2)C[C@]2(C[C@@H](CO)C2)C1 (single isomer, unassigned) [Compound 134] | Ent. B Max Activity (%): +++ (+++ is >60%); EC50 (read-out: Ent. B EC50): < 1000 nM |
|  |  | +++ (+++ is >60%) | < 1000 | Cc1cccc(C)c1-c1cc2nc(n1)NS(=O)(=O)c1cccc(c1)C(=O)N([C@H]1C[C@@H](N3CCOCC3)C1)[C@H](CC(C)C)CO2 [Compound 387] |  |
|  |  | +++ (+++ is >60%) | < 1000 | Cc1cccc(C)c1-c1cc2nc(n1)NS(=O)(=O)c1cccc(c1)C(=O)N(C1CC3(CCN(C(=O)[C@@H](C)O)CC3)C1)[C@H](CC(C)C)CO2 [Compound 455] |  |
|  |  | +++ (+++ is >60%) | < 1000 | Cc1cccc(C)c1-c1cc2nc(n1)NS(=O)(=O)c1cccc(c1)C(=O)N([C@H]1C[C@@H](N)C1)[C@H](CC1(C(F)(F)F)CC1)CO2 (single isomer, unassigned) [Compound 56] |  |
|  |  | +++ (+++ is >60%) | < 1000 | Cc1cccc(C)c1-c1cc2nc(n1)NS(=O)(=O)c1cccc(c1)C(=O)N(C1CC3(CC(N(C)C)C3)C1)[C@H](CC(C)(C)C)CO2 (stereo partly drawn) [Compound 461] |  |
|  |  | +++ (+++ is >60%) | < 1000 | Cc1cccc(C)c1-c1cc2nc(n1)NS(=O)(=O)c1cccc(c1)C(=O)N(C1CC(NC(=O)OC(C)(C)C)C1)[C@H](CC(C)(C)C(F)(F)F)CO2 (single isomer, unassigned) [Compound 193] |  |
|  |  |  |  | Cc1cccc(C)c1-c1cc2nc(n1)NS(=O)(=O)c1cccc(c1)C(=O)N(C1CC3(CCN(C(=O)OC(C)(C)C)CC3)C1)[C@H](CC(C)(C)C)CO2 [Compound 437] | Ent. B Max Activity (%): ++ (++ is 30-60%); EC50 (read-out: Ent. B EC50): < 1000 nM |
|  |  | +++ (+++ is >60%) | < 1000 | COC(=O)NC1CC2(C1)CC(N1C(=O)c3cccc(c3)S(=O)(=O)Nc3nc(cc(-c4c(C)cccc4C)n3)OC[C@H]1CC(C)(C)C(F)(F)F)C2 (single isomer, unassigned) [Compound 75] |  |
| +++ (+++ is >60%) | < 1000 |  |  | Cc1cccc(C)c1-c1cc2nc(n1)NS(=O)(=O)c1cccc(c1)C(=O)N(c1cnn(CC(C)C)c1)[C@H](CC(C)(C)C)CO2 [Compound 229] |  |
|  |  |  |  | CCCN1CCC2(CC1)CC(N1C(=O)c3cccc(c3)S(=O)(=O)Nc3nc(cc(-c4c(C)cccc4C)n3)OC[C@H]1CC(C)C)C2 [Compound 303] | Ent. B Max Activity (%): +++ (+++ is >60%); EC50 (read-out: Ent. B EC50): < 1000 nM |

| Structure (SMILES) | Ent. B Max Activity (%) (Table 10) | EC50 [1] [nM] | Ent. B Max Activity (%) (Table 9) | EC50 (Table 9, read-out: Ent. B EC50) [nM] | further results |
| --- | --- | --- | --- | --- | --- |
| Cc1cccc(C)c1-c1cc2nc(n1)NS(=O)(=O)c1cccc(c1)C(=O)N(C1CC(OC(=O)N(C)C)C1)[C@H](CC(C)C)CO2 (stereo partly drawn) [Compound 48, [3-[(11R)-6-(2,6-dimethylphenyl)-11-isobutyl-2,2,13-trioxo-9-oxa-2λ^6-thia-3,5,12,19-tetrazatricyclo[12.3.1.14,8]nonadeca-1(18),4(19),5,7,14,16-hexaen-12-yl]cyclobutyl] N,N-dimethylcarbamate] | ++ (++ is 30-60%) | < 1000 |  |  |  |
